{"source": "patent US20240108740A1", "about": "“THERAPEUTIC COMPOSITIONS INCLUDING SPN10 AND USES THEREOF” (Stealth BioTherapeutics Inc., priority 2022, published 2024)", "tested_on": "Sprague-Dawley rats", "experiment": "Example 5: unilateral ureteral obstruction (UUO), 14 days", "assay_type": "in vivo, rat", "method": "UUO will be induced in Sprague-Dawley rats. The rats will be treated with saline (i.p., n=6), peptide conjugates (1 mg/kg i.p., n=6), aromatic-cationic peptides (e.g., an equivalent molar dose of aromatic-cationic peptide based on the concentration of the aromatic-cationic peptide administered in the peptide conjugate treatment group), SPN10(s) (e.g., an equivalent molar dose of SPN10 based on the concentration of SPN10 administered in the peptide conjugate treatment group), or SPN10(s) in combination with aromatic-cationic peptides (e.g., an equivalent molar dose of SPN10 based on the concentration of SPN10 administered in the peptide conjugate treatment group and an equivalent molar dose of aromatic-cationic peptide based on the concentration of aromatic-cationic peptide administered in the peptide conjugate treatment group) one day prior to induction of UUO, and once daily for 14 days after UUO induction. Rats will be sacrificed and the kidneys removed, embedded in paraffin, and sectioned. The sections will be treated with an anti-CD36 polyclonal IgG (Santa Cruz, sc-9154; diluted 1:100 with blocking serum) at room temperature for 1.5 hours. The slides will then be incubated with the second antibody conjugated with biotin (anti-rabbit IgG-B1; ABC kit, PK-6101) at room temperature for 30 min. The slides will then be treated with avidin, developed with DAB and counterstained with 10% hematoxylin. The contralateral unobstructed kidney will serve as the control for each animal.\nRats will then be sacrificed, kidneys removed, embedded in paraffin and sectioned. Slides will be incubated with anti-HNE rabbit IgG and a biotin-linked anti-rabbit IgG will be used as secondary antibody. The slides will be developed with DAB. Lipid peroxidation, which is increased by UUO, is anticipated to be reduced by treatment with peptide conjugates, aromatic-cationic peptides, or SPN10(s) (with or without aromatic-cationic peptides).\nRats will then be sacrificed, kidneys removed, embedded in paraffin and sectioned. To quantify nuclei with fragmented DNA, TUNEL assay will be performed with in situ TUNEL kit. Slides will be developed with DAB and counterstained with 10% hematoxylin. […] It is anticipated that there will be a significant increase in apoptotic cells observed in the obstructed kidney from saline-treated animals when compared to the contralateral unobstructed control.\nMacrophage infiltration and interstitial fibrosis are anticipated to be prevented by treatment with peptide conjugates, aromatic-cationic peptides, or SPN10(s) (alone or in combination with aromatic-cationic peptides). Rats will be treated with either saline (n=6), peptide conjugates (1 mg/kg i.p., n=6), aromatic-cationic peptides (e.g., an equivalent molar dose of aromatic-cationic peptide based on the concentration of the aromatic-cationic peptide administered in the peptide conjugate treatment group), SPN10(s) (e.g., an equivalent molar dose of SPN10 based on the concentration of SPN10 administered in the peptide conjugate treatment group) or SPN10(s) in combination with aromatic-cationic peptides (e.g., an equivalent molar dose of SPN10 based on the concentration of SPN10 administered in the peptide conjugate treatment group and an equivalent molar dose of aromatic-cationic peptide based on the concentration of aromatic-cationic peptide administered in the peptide conjugate treatment group) one day prior to induction of UUO, and once daily for 14 days after UUO. Rats will then be sacrificed, the kidneys removed, embedded in paraffin and sectioned. Slides will be treated with monoclonal antibody for ED1 macrophage (1:75; Serotec). Horseradish peroxidase-linked rabbit anti-mouse secondary antibody (Dako) will be used for macrophage detection. Sections will then be counterstained with 10% hematoxylin. […]", "note": "Residues, ends and D or L forms follow the SMILES beside them.", "data": [{"smiles": "N=C(N)NCCC[C@H](NC(=O)[C@@H](N)Cc1c[nH]c2ccccc12)C(=O)N[C@@H](Cc1c[nH]c2ccccc12)C(=O)N[C@@H](CCCCN)C(N)=O", "note": "[SPN10, H-L-Trp-L-Arg-L-Trp-L-Lys-NH2] (H-WRWK-NH2)", "values": [{"measurement": "CD36 expression in tubular cells after UUO", "setting": "anti-CD36 immunostaining", "result": "significant reduction in CD36 expression"}, {"measurement": "HNE staining in obstructed kidney", "setting": "compared to saline-treated rats", "result": "significantly less HNE staining"}, {"measurement": "tubular dilation after UUO", "setting": "one day prior to UUO and once daily for 14 days", "result": "Tubular dilation is also anticipated"}, {"measurement": "interstitial fibrosis in obstructed kidney (Masson's trichrome)", "setting": "rat, in vivo", "result": "significantly less fibrosis"}, {"measurement": "lipid peroxidation in kidney after UUO", "setting": "rat, in vivo", "result": "reduced"}, {"measurement": "macrophage infiltration in obstructed kidney (ED1)", "setting": "rat, in vivo", "result": "significantly reduced"}, {"measurement": "number of apoptotic cells in obstructed kidney (TUNEL)", "setting": "rat, in vivo", "result": "significantly reduced"}, {"measurement": "up-regulation of CD36 associated with tubular cell apoptosis", "setting": "rat, in vivo", "result": "significantly inhibited"}]}]}
